In patent publication US20060069132A1, “Azolecarboxamide herbicides” (priority 2004, published 2006):

Assays:
barnyardgrass [1] = assay: Test B pre-/postemergence herbicide test; format: in vivo, Echinochloa crus-galli; conditions: for Plant response rating (0 to 100 scale), Barnyardgrass: 0 is no effect, 100 is complete control, preemergence; for Barnyardgrass plant response rating: Postemergence, scale 0 (no effect) to 100 (complete control)
Summary of the method: (§1)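 Species tested were Echinochloa crus-galli, Ipomoea coccinea, Xanthium strumarium and Oryza sativa, treated both before emergence and at the 1- to 4-leaf stage; rice and barnyardgrass were also tested under flooding at 2 leaves. Greenhouse incubation lasted 13–15 days before visual 0–100 scoring.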

Surinam grass = assay: Test B pre-/postemergence herbicide test; format: in vivo, Urochloa decumbens; conditions: for Plant response rating (0 to 100 scale), Surinam Grass: 0 is no effect, 100 is complete control, preemergence
Summary of the method: (§2)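 Response was scored visually 13 to 15 days after treatment against untreated greenhouse controls, 0 meaning no effect and 100 complete control. Formulations (solvent mixture plus surfactant) went onto soil after planting, onto foliage of 1- to 4-leaf plants, and onto 2-leaf plants in a flooded paddy set including rice and barnyardgrass.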

cocklebur = assay: Test B pre-/postemergence herbicide test; format: in vivo, Xanthium strumarium; conditions: for Plant response rating (0 to 100 scale), Cocklebur: 0 is no effect, 100 is complete control, preemergence
Summary of the method: as §1

corn = assay: Test B pre-/postemergence herbicide test; format: in vivo, Zea mays; conditions: for Plant response rating (0 to 100 scale), Corn: 0 is no effect, 100 is complete control, preemergence
Summary of the method: as §2

large crabgrass = assay: Test B pre-/postemergence herbicide test; format: in vivo, Digitaria sanguinalis; conditions: for Plant response rating (0 to 100 scale), Crabgrass, Large: 0 is no effect, 100 is complete control, preemergence
Summary of the method: as §2

giant foxtail = assay: Test B pre-/postemergence herbicide test; format: in vivo, Setaria faberi; conditions: for Plant response rating (0 to 100 scale), Foxtail, Giant: 0 is no effect, 100 is complete control, preemergence
Summary of the method: as §2

lambsquarters = assay: Test B pre-/postemergence herbicide test; format: in vivo, Chenopodium album
Summary of the method: as §2

morningglory = assay: Test B pre-/postemergence herbicide test; format: in vivo, Ipomoea coccinea; conditions: for Plant response rating (0 to 100 scale), Morningglory: 0 is no effect, 100 is complete control, preemergence
Summary of the method: as §1

pigweed = assay: Test B pre-/postemergence herbicide test; format: in vivo, Amaranthus retroflexus; conditions: for Plant response rating (0 to 100 scale), Pigweed: 0 is no effect, 100 is complete control, preemergence
Summary of the method: as §2

velvetleaf = assay: Test B pre-/postemergence herbicide test; format: in vivo, Abutilon theophrasti; conditions: for Plant response rating (0 to 100 scale), Velvetleaf: 0 is no effect, 100 is complete control, preemergence
Summary of the method: as §2

blackgrass = assay: Test B postemergence herbicide test; format: in vivo, Alopecurus myosuroides
Summary of the method: (§3)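 Plants grow to 1- to 4-leaf stage (2–18 cm) for postemergence spraying, or to 2-leaf stage for the paddy test. Formulated compound is applied. Greenhouse holding lasts 13–15 days. Response is scored visually relative to controls, 0 no effect to 100 complete control; a dash means no result.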

wheat = assay: Test B postemergence herbicide test; format: in vivo, Triticum aestivum; parameters: key to Wheat plant response rating: 0 = no effect, 100 = complete control
Summary of the method: (§4)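 Treated at 2-leaf (paddy) or 1–4-leaf, 2–18 cm (postemergence); greenhouse 13–15 d; visual score vs control, 0 none to 100 complete control; dash = not tested.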

wild oat = assay: Test B postemergence herbicide test; format: in vivo, Avena fatua
Summary of the method: as §4

rice = assay: Test B flooded paddy test; format: in vivo, Oryza sativa; conditions: 1000 g ai/ha, scale 0 to 100 (0 no effect, 100 complete control)
Summary of the method: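 Postemergence plants were sprayed with formulated test chemicals at 2 to 18 cm height (1- to 4-leaf stage); paddy species were grown to the 2-leaf stage. After 13 to 15 days in a greenhouse, injury was rated visually against untreated controls on a 0–100 scale (0 = no effect, 100 = complete control).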

[2] = test system: small flower umbrella sedge; assay: Test B flooded paddy test; format: in vivo, Cyperus difformis; conditions: 1000 g ai/ha, scale 0 to 100 (0 no effect, 100 complete control)
Summary of the method: as §3

ducksalad = assay: Test B flooded paddy test; format: in vivo, Heteranthera limosa; conditions: 1000 g ai/ha, scale 0 to 100 (0 no effect, 100 complete control)
Summary of the method: as §3

barnyardgrass [3] = assay: Test B flooded paddy test; format: in vivo, Echinochloa crus-galli; conditions: 1000 g ai/ha, scale 0 to 100 (0 no effect, 100 complete control)
Summary of the method: as §3

[4] = Postemergence, 500 g ai/ha, scale 0 (no effect) to 100 (complete control)
[5] = postemergence, 125 g ai/ha, scale 0 to 100
[6] = 500 g ai/ha, scale 0 to 100, 0 no effect, 100 complete control, preemergence

CCc1nn(C(C)(C)C)nc1C(=O)Nc1cccc(C(=O)N2CCCCC2)c1 [Compound 416]
10: Plant response rating (0 to 100 scale), Velvetleaf (velvetleaf; 125 g ai/ha)
100: Plant response rating (0 to 100 scale), Crabgrass, Large (large crabgrass; 125 g ai/ha)
40: Crabgrass, Large plant response rating (large crabgrass; [4]) | Velvetleaf plant response rating (velvetleaf; [5]) | Oat, Wild plant response rating (wild oat; [4])
60: Plant response rating (0 to 100 scale), Surinam Grass (Surinam grass; 125 g ai/ha) | Cocklebur plant response rating (cocklebur; [4]) | Pigweed plant response rating (pigweed; [5]) | Wheat plant response rating (wheat; [6]) | Barnyardgrass plant response rating (barnyardgrass [3])
90: Ducksalad plant response rating (ducksalad)
80: Lambsquarters plant response rating (lambsquarters; [4]) | Pigweed plant response rating (pigweed; [4]) | Sedge, Umbrella plant response rating [2]
30: Barnyardgrass plant response rating (barnyardgrass [1]; 500 g ai/ha) | Surinam Grass plant response rating (Surinam grass; [4]) | Corn plant response rating (corn; [4]) | Crabgrass, Large plant response rating (large crabgrass; [5]) | Foxtail, Giant plant response rating (giant foxtail; [4]) | Morningglory plant response rating (morningglory; [5]) | Blackgrass plant response rating (blackgrass; [4]) | Wheat plant response rating (wheat; [4]) | Oat, Wild plant response rating (wild oat; [5])
50: Cocklebur plant response rating (cocklebur; [5]) | Velvetleaf plant response rating (velvetleaf; [4])
70: Plant response rating (0 to 100 scale), Barnyardgrass (barnyardgrass [1]; 125 g ai/ha) | Plant response rating (0 to 100 scale), Foxtail, Giant (giant foxtail; 125 g ai/ha) | Lambsquarters plant response rating (lambsquarters; [5]) | Morningglory plant response rating (morningglory; [4]) | Plant response rating (0 to 100 scale), Pigweed (pigweed; 125 g ai/ha) | Rice plant response rating (rice)
0: Plant response rating (0 to 100 scale), Cocklebur (cocklebur; 125 g ai/ha) | Plant response rating (0 to 100 scale), Morningglory (morningglory; 125 g ai/ha)
20: Barnyardgrass plant response rating (barnyardgrass [1]; 125 g ai/ha) | Surinam Grass plant response rating (Surinam grass; [5]) | Plant response rating (0 to 100 scale), Corn (corn; 125 g ai/ha) | Corn plant response rating (corn; [5]) | Foxtail, Giant plant response rating (giant foxtail; [5]) | Blackgrass plant response rating (blackgrass; [5]) | Wheat plant response rating (wheat; [5])

CCOC(=O)c1ccnc(NC(=O)c2nn(C(C)(C)C)nc2C)c1 [Compound 421]
0: Plant response rating (0 to 100 scale), Barnyardgrass (barnyardgrass [1]; 125 g ai/ha) | Barnyardgrass plant response rating (barnyardgrass [1]; 125 g ai/ha) | Barnyardgrass plant response rating (barnyardgrass [1]; 500 g ai/ha) | Plant response rating (0 to 100 scale), Surinam Grass (Surinam grass; 125 g ai/ha) | Surinam Grass plant response rating (Surinam grass; [4]) | Surinam Grass plant response rating (Surinam grass; [5]) | Plant response rating (0 to 100 scale), Cocklebur (cocklebur; 125 g ai/ha) | Cocklebur plant response rating (cocklebur; [4]) | Cocklebur plant response rating (cocklebur; [5]) | Plant response rating (0 to 100 scale), Corn (corn; 125 g ai/ha) | Corn plant response rating (corn; [4]) | Corn plant response rating (corn; [5]) | Plant response rating (0 to 100 scale), Crabgrass, Large (large crabgrass; 125 g ai/ha) | Crabgrass, Large plant response rating (large crabgrass; [4]) | Crabgrass, Large plant response rating (large crabgrass; [5]) | Plant response rating (0 to 100 scale), Foxtail, Giant (giant foxtail; 125 g ai/ha) | Foxtail, Giant plant response rating (giant foxtail; [4]) | Foxtail, Giant plant response rating (giant foxtail; [5]) | Plant response rating (0 to 100 scale), Lambsquarters (lambsquarters; 125 g ai/ha, 0 is no effect, 100 is complete control, preemergence) | Lambsquarters plant response rating (lambsquarters; [4]) | Lambsquarters plant response rating (lambsquarters; [5]) | Plant response rating (0 to 100 scale), Morningglory (morningglory; 125 g ai/ha) | Morningglory plant response rating (morningglory; [4]) | Morningglory plant response rating (morningglory; [5]) | Plant response rating (0 to 100 scale), Pigweed (pigweed; 125 g ai/ha) | Pigweed plant response rating (pigweed; [4]) | Pigweed plant response rating (pigweed; [5]) | Plant response rating (0 to 100 scale), Velvetleaf (velvetleaf; 125 g ai/ha) | Velvetleaf plant response rating (velvetleaf; [4]) | Velvetleaf plant response rating (velvetleaf; [5]) | Wheat plant response rating (wheat; [6]) | Wheat plant response rating (wheat; [4]) | Wheat plant response rating (wheat; [5]) | Oat, Wild plant response rating (wild oat; [4]) | Oat, Wild plant response rating (wild oat; [5]) | Rice plant response rating (rice) | Sedge, Umbrella plant response rating [2] | Ducksalad plant response rating (ducksalad) | Barnyardgrass plant response rating (barnyardgrass [3])
20: Blackgrass plant response rating (blackgrass; [4]) | Blackgrass plant response rating (blackgrass; [5])
